Experimental data as given in article PMC2816240 (European Journal of Nuclear Medicine and Molecular Imaging, 2009).

Experiments:
[1] = tested on: male Wistar rats; type: in vivo, rat; conditions: 20 h post-injection, n = 5 rats, vs PBS
[2] = tested on: male Wistar rats; experiment: Adverse effects of injection in rats; type: in vivo; conditions: peptide #6 0.2, 1 or 5 mg per rat i.v.

Sequence: ENFVAFVDKCCAADDKEA CFAVEGPKLVVSTQTALA [peptide #6]
- uptake of 111In-octreotide in the pancreas and other organs ([1]; peptide #6 5 mg i.v.): unaffected
- uptake of 111In-minigastrin and 111In-exendin in organs other than the kidneys ([1]; peptide #6 i.v.): not affected
- adverse effects of injection [2]: no adverse effects
